Entries after “also recorded” stand apart in the source; their conditions may differ.
Legend:
[1] = test system: patients with major depressive disorder (MDD) or persistent depressive disorder (PDD); assay: Multi-center, double-blind, randomized, placebo-controlled clinical trial of ezogabine (clinical rating scales); assay type: in vivo, human
From the text: The well-known Montgomery-Asberg Depression Rating Scale (MADRS) is employed to capture change in overall depressive severity. […] The primary clinical outcome is a MADRS subscale composed of items 7 and 8 from the MADRS that capture symptoms of reduced motivation, low energy, and loss of interest or pleasure, which are termed “MADRS”.
The Temporal Experience of Pleasure Scale (TEPS) is designed to capture the separate reward processing components of anticipation and consumption, mapping the PVS constructs of AM/reward expectancy and IRRA/SSRA, respectively.
The TEPS is an 18-item self-report measurement of anticipatory (10 items) and consummatory (eight items) components of anhedonia which consists of a series of statements that must be rated according to how accurate they are for the individual. The scale differentiates the role of anticipatory pleasure (‘wanting’) from consummatory pleasure (‘liking’). The TEPS-Anticipatory sub-scale is a validated measure of anticipation of reward (higher scores are better); the TEPS-Consummatory sub-scale is a validated measure of response to receipt of reward.
Two additional instruments include the Specific Loss of Interest and Pleasure Scale (SLIPS) and the Anticipatory and Consummatory Interpersonal Pleasure Scale (ACIPS) which offer additional unique features, including specificity for anhedonia in the context of depression, and a focus on social aspects of reward.
The Quick Inventory of Depressive Symptomatology-Self-Report (QIDS-SR) is a validated self-report of depression.
The CGI-S/I will provide an overall clinician-determined summary measure that takes into account all available information, including knowledge of the subject's history, psychosocial circumstances, symptoms, behavior, and the impact of the symptoms on the subject's ability to function. The CGI evaluates the severity of psychopathology from 1 to 7. The CGI-S is a widely administered clinician rated global measure of overall illness severity. Subjects are rated on a 1-7 scale where 1 corresponds to “Normal, Not at All Ill”, 2 is “Borderline Mentally Ill”, the anchor for 3 is “Mildly Ill”, the anchor for 4 is “Moderately Ill”, 5 is “Markedly Ill”, 6 is “Severely Ill”, and 7 is “Among the Most Extremely Ill Patients”. It will be administered at all subject visits. The CGI-I is a widely administered clinician rated global measure of the degree of improvement from the initial assessment in subject overall illness severity. […] It will be administered at all subject visits.
The study procedures were conducted at the Icahn School of Medicine at Mount Sinai in New York City and at Baylor College of Medicine in Houston, Tex. Participants were between the ages of 18 and 65 and meet DSM-V criteria for major depressive disorder (MDD) or persistent depressive disorder (PDD, a chronic form of depression), as assessed by a trained rater using the Structured Clinical Interview for Diagnostic and Statistical Manual of Mental Disorders-Fifth Edition Text Revision (DSM-V-TR) Axis I Disorders, Patient Edition (SCID-I/P).
Following screening (Day −28 to Day −2), screening data was reviewed by the site PI to determine subject eligibility. Subjects who met all inclusion criteria and none of the exclusion criteria entered into the study. All eligible participants returned to the clinics to complete the baseline assessments and undergo randomization (Day 0, Baseline). Baseline assessments included clinical evaluations, the PRT and fMRI scanning (details below). […] Randomization was balanced by using randomly permuted blocks and stratified by center. A computer-generated randomization scheme developed by the coordinating site assigned a unique treatment code, which dictated the treatment assignment and matching study drug kit for each subject. The randomization list was provided by the research pharmacist at the coordinating site to the research pharmacist at the collaboration site.

[2] = test system: ventral striatum (VS); assay: fMRI during the Incentive Flanker Task: activation to reward anticipation; assay type: in vivo, human; details: baseline to primary outcome visit; ezogabine compared to placebo; n=40
From the text: Following screening (Day −28 to Day −2), screening data was reviewed by the site PI to determine subject eligibility. Subjects who met all inclusion criteria and none of the exclusion criteria entered into the study. All eligible participants returned to the clinics to complete the baseline assessments and undergo randomization (Day 0, Baseline). Baseline assessments included clinical evaluations, the PRT and fMRI scanning (details below). […] Randomization was balanced by using randomly permuted blocks and stratified by center. […]
At each visit, participants completed self-report and clinician-administered rating scales performed by trained raters, and met with a study psychiatrist who assessed suicidal thinking or behavior, adverse events (AE), and changes in concomitant medications. […]
The primary outcome measure of the study was a change in activation within the bilateral ventral striatum (VS, FIG. 1) from baseline (Study Visit 0) to the primary outcome visit (Study Visit 5) as measured by functional magnetic resonance imaging (fMRI) during the Incentive Flanker Task (IFT), a variant of the monetary incentive delay task (MID) as described above. […] Additional secondary outcome included change in behavioral symptoms of anhedonia through a computer-based task, the Probabilistic Reward Task (PRT), and global illness improvement and severity evaluated through changes in CGI-I and CGI-S scores. […]

[3] = test system: patients enduring stressful life situations; assay: Example 5: inducing resilience in patients enduring stressful life situations; assay type: in vivo, human; details: 900 mg oral (300 mg TID) daily; example in present tense
[4] = test system: patients diagnosed with PTSD; assay: Example 4: treatment of patients with PTSD; assay type: in vivo, human; details: 900 mg oral (300 mg TID) daily; example in present tense
[5] = test system: patients with treatment resistant depression (TRD); assay: Sub-group analysis of the clinical trial: patients with treatment resistant depression (TRD), MADRS
From the text: Treatment resistance is defined as at least one probable treatment failure as captured and by the Antidepressant Treatment form (AHTF).

[6] = test system: patients diagnosed with an anxiety disorder; assay: Example 3: treatment of patients with an anxiety disorder; details: 900 mg oral (300 mg TID); example in present tense
[7] = molecular target: P-glycoprotein (Homo sapiens, UniProt P08183); details: cited from earlier work
[8] = human, in vivo; cited from earlier work

Chain of P-glycoprotein (P08183 whole entry): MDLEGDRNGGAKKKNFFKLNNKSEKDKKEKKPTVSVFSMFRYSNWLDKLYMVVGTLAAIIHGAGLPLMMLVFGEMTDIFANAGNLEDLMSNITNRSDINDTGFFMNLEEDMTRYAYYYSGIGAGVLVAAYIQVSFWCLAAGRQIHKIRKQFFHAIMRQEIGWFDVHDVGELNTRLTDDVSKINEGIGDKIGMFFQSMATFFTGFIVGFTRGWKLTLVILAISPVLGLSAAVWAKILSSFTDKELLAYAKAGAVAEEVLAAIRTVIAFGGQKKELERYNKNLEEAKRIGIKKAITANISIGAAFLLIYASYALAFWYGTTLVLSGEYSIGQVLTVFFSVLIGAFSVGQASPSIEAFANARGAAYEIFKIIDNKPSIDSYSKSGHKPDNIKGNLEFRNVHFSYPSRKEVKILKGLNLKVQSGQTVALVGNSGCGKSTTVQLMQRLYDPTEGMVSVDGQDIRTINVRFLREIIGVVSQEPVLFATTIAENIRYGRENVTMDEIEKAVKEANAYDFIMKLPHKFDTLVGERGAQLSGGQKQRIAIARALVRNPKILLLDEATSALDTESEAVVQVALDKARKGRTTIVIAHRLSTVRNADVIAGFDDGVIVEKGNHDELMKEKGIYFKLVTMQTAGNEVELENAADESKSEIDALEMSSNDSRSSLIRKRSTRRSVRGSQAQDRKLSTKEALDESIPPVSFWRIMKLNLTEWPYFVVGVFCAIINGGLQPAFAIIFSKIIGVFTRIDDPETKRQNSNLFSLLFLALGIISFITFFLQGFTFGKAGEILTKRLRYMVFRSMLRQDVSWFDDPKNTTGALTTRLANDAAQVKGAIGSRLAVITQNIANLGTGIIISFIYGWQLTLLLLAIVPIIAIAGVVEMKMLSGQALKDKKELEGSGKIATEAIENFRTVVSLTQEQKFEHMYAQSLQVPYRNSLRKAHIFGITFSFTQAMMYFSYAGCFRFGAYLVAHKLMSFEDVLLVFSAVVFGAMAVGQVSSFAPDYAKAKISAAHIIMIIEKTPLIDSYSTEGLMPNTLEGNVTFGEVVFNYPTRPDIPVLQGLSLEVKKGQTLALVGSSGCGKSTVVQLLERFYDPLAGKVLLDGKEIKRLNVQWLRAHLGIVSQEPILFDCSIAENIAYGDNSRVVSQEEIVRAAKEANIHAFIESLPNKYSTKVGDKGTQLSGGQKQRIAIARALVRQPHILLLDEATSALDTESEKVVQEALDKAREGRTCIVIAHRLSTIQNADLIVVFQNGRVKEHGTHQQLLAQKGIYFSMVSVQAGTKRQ

CCOC(=O)Nc1ccc(NCc2ccc(F)cc2)cc1N [ezogabine, N-[2-amino-4-(4-fluorobenzylamino)-phenyl] carbamic acid ethyl ester]
SHAPS scores, Estimate (ezogabine compared to placebo) ([1]; anhedonia, n=45, p<0.0001): −1.55
mean change from baseline in MADRS score ([1]; at the primary outcome visit, ezogabine up to 900 mg/day oral): 5.9±8.8 points
SHAPS, Cohen's d ([1]; ezogabine compared to placebo, medium effect size): 0.6
MADRS, Cohen's d ([1]; ezogabine compared to placebo, n=45): 0.7
TEPS anticipatory subscale (TEPS-ant), Estimate ([1]; ezogabine compared to placebo, n=45, p=0.0008): 1.33
ACIPS, Estimate ([1]; ezogabine compared to placebo, p=0.0002): 2.77
SLIPS, Estimate ([1]; ezogabine compared to placebo, p=0.0009): −1.78
TEPS consummatory subscale (TEPS-con), Estimate ([1]; ezogabine compared to placebo, p=0.05): 0.64
effect on anhedonia symptoms ([1]; human patients with depression and anhedonia, 300 mg TID oral, 5 weeks, SHAPS): successfully treated patients suffering from anhedonia; also recorded: reduction in anhedonia and related symptoms
change in activation to reward anticipation within ventral striatum (fMRI) [2]: increased response to reward in the brain
resilience: managing emotional health and wellness [3]: better at managing their emotional health and wellness
PTSD symptoms [4]: alleviated after treatment
difference in MADRS change (V5 vs V0): TRD versus non-TRD patients ([5]; TRD ezogabine, non-TRD ezogabine and placebo groups, p=0.015): even larger benefit of treatment compared to placebo in the TRD patients than in the non-TRD patients
onset of improvement in MADRS scores, ezogabine TRD group ([5]; TRD patients, change over time): significant improvement after a single treatment
effect of treatment on MADRS in patients with TRD ([5]; TRD patients, ezogabine 900 mg/day vs placebo, ANOVA p=0.024): greatest improvement in their MADRS scores; also recorded: significant effect of treatment; also recorded: beneficial effects compared to placebo
symptoms of anxiety [6]: rapid and sustained alleviation of their symptoms of anxiety
P-glycoprotein active transport [7]: not subject to P-glycoprotein active transport
median time to maximum plasma concentration (Tmax) [8]: 30 to 120 min
metabolism [8]: extensively metabolized primarily via glucuronidation and acetylation
